From patent publication US7071190B2, “Inhibitors to tubulin polymerization” (Rigel Pharmaceuticals, Inc., priority 2002, dated 2006) come the findings set out here.

pIC50: −log10 of the molar value.

Assay [1] deals with MAP-rich tubulin protein from bovine brain. Briefly: Tubulin polymerization turbidity assay (A340 over time). The format is biochemical. As for the experimental part:
FIG. 1. Tubulin polymerization inhibitory activity of the compounds of the invention was assayed by following the turbidity of a tubulin-containing solution over time. Polymerization of tubulin generates microtubules, the presence of which increases the absorbance of the assay solution over time. Effective inhibition manifests as a reduction of rate of absorbance increase at 340 nanometers. (a) 10 μM of compounds 19, 39, 43, 54 and 62, as well as 10 μM nocodazole as a positive control and DMSO as a negative control. (b) 10 μM of compounds 1, 88, 95, and 54, as well as 10 μM as well a positive controls 1 and 2 and DMSO as a negative control. (c) 0.4, 2.0 and 10 μM compound 54 versus 0.4, 2.0 and 10 μM nocodazole as a positive control and DMSO as a negative control.
Measurement of the tubulin polymerization can be achieved using known methodologies. For example, assays for tubulin polymerization may be performed using a kit from Cytoskeleton (Denver, Colo.) and as described by Tahir, S. K., et al, (2001) Cancer Res., 61:5480–5.
The assay measures tubulin polymerization as an increase in turbidity (A340) over time. Assays for tubulin polymerization were performed using a kit from Cytoskeleton (Denver, Colo.) and as described by Tahir, S. K., et al, (2001) Cancer Res., 61: 5480–5, incorporated herein by reference, and as described below.
To determine the ability of the compounds to inhibit microtubule polymerization in vitro, the following protocol was followed: (i) 70 μl ice-cold MAP-rich tubulin protein from bovine brain (1.5 mg/ml final concentration) was added to polymerization buffer (80 mM PIPES pH6.8, 1 mM EGTA, 1 mM MgCl2, 1 mM GTP) in a quartz microcuvette; (ii) 0.7 μl of DMSO or 100X stock of control (nocodazole) or test compound (thienopyrimidine) in DMSO were added to the cuvette; (iii) the contents were mixed by pipefting gently; (iv) the polymerization reaction was initiated by placing the cuvette in pre-warmed (37° C.) cuvette holder in Beckman spectrophotometer; (v) the absorbance was monitored at 340 nm at 30 second intervals for 20 minutes. Tubulin polymerization result in increased turbidity in the reaction solution, which is registered as an increase in absorbance at 340 nm. Inhibitors of tubulin polymerization are detected by a reduction in the rate, the initial slope, and/or extent of the turbidity change (i.e., max. absorbance at 340 nm) in plots of ΔA340 versus time.

For another assay, the system named is A549 cells. Briefly: Bromodeoxyuridine (BrdU) proliferation assay. It counts as cell-based, human. The following applies: for pIC50: Homo sapiens, A549, 48 h, BrdU ELISA 48 hours after addition of compound, tested 0.03-10 uM, cell line not given (A549 method; SW-480 and MDA-MB-231 also used), read-out: Assay Result (IC50μM); for Activity ranking: most active compounds of the invention / Activity ranking: particularly active examples of the compounds of the invention: antiproliferative activity. How it is done: In order to determine the antiproliferative activity of microtubule inhibitors, A549 cells were plated in 96 well plates at 2000 cells/well 24 hours prior to the addition of a compound of the invention in 80 ul growth media (F12K, 10% FBS, Pen/Strep). Prior to addition to cells, compounds were solubilized in 100% DMSO to 5 mM and serially diluted in 6 semi-log steps in 100% DMSO. The diluted compounds were added to cells by two 15.8-fold dilution steps, the first being a dilution into a 23% ethanol/H2O mixture and the second being a dilution into growth media. Finally, these dilutions were followed by a 1:1 dilution onto cells. The resulting final solvent concentration was 0.2% DMSO/0.75% ethanol. Compounds were tested at final concentrations of 10, 3, 1, 0.3, 0.1 and 0.03 uM. Forty-eight hours after the addition of compound, the effects on cellular proliferation were measured using a cell proliferation BrdU ELISA (Roche Molecular Biochemicals, Cat.#1 669 915).
In general terms: Dividing cells build labelled thymidine or BrdU into new DNA.

[2] abbreviates: 10 μM compound, FIG. 1 (a), (b).

Regarding `S=C(NNc1ncnc2cc(-c3ccccc3)sc12)NC1CC1` [Compound 19], the “Inhibition of tubulin polymerization (reduction of rate of absorbance increase at 340 nanometers)” value in assay [1] (setting [2]) was “Inhibition activity is observed”. In the assay with A549 cells, the pIC50 is 7.05, the “Activity ranking: most active compounds of the invention” value (“Activity ranking: most active compounds” below) is recorded as “most active” and the “Activity ranking: particularly active examples of the compounds of the invention” value is recorded as “particularly active”.
As to `Cc1cccc(-c2cc3ncnc(NNC(=S)NC4CC4)c3s2)c1` [Compound 39], the “Inhibition of tubulin polymerization (reduction of rate of absorbance increase at 340 nanometers)” value in assay [1] (setting [2]) is recorded as “Inhibition activity is observed”. In addition, in the assay with A549 cells, the pIC50 is 7.41, the “Activity ranking: most active compounds” value was “most active” and the “Activity ranking: particularly active examples of the compounds of the invention” value is “particularly active”.
Regarding `S=C(NNc1ncnc2cc(-c3ccccc3Cl)sc12)NC1CC1` [Compound 43], in assay [1] (setting [2]), the “Inhibition of tubulin polymerization (reduction of rate of absorbance increase at 340 nanometers)” value is “Inhibition activity is observed”. Further, in the assay on A549 cells, the pIC50 was 6.36, the “Activity ranking: most active compounds” value is “most active” and the “Activity ranking: particularly active examples of the compounds of the invention” value is recorded as “particularly active”.
`Cc1cc(C)cc(-c2cc3ncnc(NNC(=S)NC4CC4)c3s2)c1` [Compound 54]: the “Inhibition of tubulin polymerization (reduction of rate of absorbance increase at 340 nanometers)” value in assay [1] (setting [2]) is given as “Inhibition activity is observed”. Further, the “Inhibition of tubulin polymerization (reduction of rate of absorbance increase at 340 nanometers)” value in assay [1] (0.4, 2.0 and 10 μM, FIG. 1 (c)) is “Inhibition activity is observed”. Moreover, in the assay with A549 cells, the pIC50 is 7.80, the “Activity ranking: most active compounds” value is listed as “most active” and the “Activity ranking: particularly active examples of the compounds of the invention” value was “particularly active”.
For `S=C(NCC1CC1)NNc1ncnc2cc(-c3ccccc3)sc12` [Compound 62], in assay [1] (setting [2]), the “Inhibition of tubulin polymerization (reduction of rate of absorbance increase at 340 nanometers)” value was “Inhibition activity is observed”. In addition, in the assay on A549 cells, the pIC50 is 6.64, the “Activity ranking: most active compounds” value is reported as “most active” and the “Activity ranking: particularly active examples of the compounds of the invention” value was “particularly active”.
On to `COCCNC(=S)NNc1ncnc2cc(-c3ccc(C)cc3)sc12` [Compound 87], for which, in the assay with A549 cells, the pIC50 is 6.78, the “Activity ranking: most active compounds” value was “most active” and the “Activity ranking: particularly active examples of the compounds of the invention” value was “particularly active”.
For `COCCNC(=S)NNc1ncnc2cc(-c3cccc(C)c3)sc12` [Compound 88], the “Inhibition of tubulin polymerization (reduction of rate of absorbance increase at 340 nanometers)” value in assay [1] (setting [2]) is reported as “Inhibition activity is observed”. In the assay with A549 cells, the pIC50 is 7.22, the “Activity ranking: most active compounds” value is on record as “most active” and the “Activity ranking: particularly active examples of the compounds of the invention” value was “particularly active”.
As to `COCCCNC(=S)NNc1ncnc2cc(-c3cccc(C)c3)sc12` [Compound 89], in the assay on A549 cells, the pIC50 is 7.55, the “Activity ranking: most active compounds” value is “most active” and the “Activity ranking: particularly active examples of the compounds of the invention” value is “particularly active”.
As for `COCCNC(=S)NNc1ncnc2cc(-c3cccc(C(F)(F)F)c3)sc12` [Compound 91], in the assay on A549 cells, the pIC50 was 5.66 and the “Activity ranking: particularly active examples of the compounds of the invention” value is “particularly active”.
`COCCNC(=S)NNc1ncnc2cc(-c3ccc(OC)cc3)sc12` [Compound 92]: in the assay with A549 cells, the pIC50 was 5.93 and the “Activity ranking: particularly active examples of the compounds of the invention” value is “particularly active”.
With `COCCNC(=S)NNc1ncnc2cc(-c3ccccc3Cl)sc12` [Compound 95], the “Inhibition of tubulin polymerization (reduction of rate of absorbance increase at 340 nanometers)” value in assay [1] (setting [2]) is recorded as “Inhibition activity is observed”. For the same compound, in the assay on A549 cells, the pIC50 was 5.83 and the “Activity ranking: particularly active examples of the compounds of the invention” value is given as “particularly active”.
With `Cc1cc(C)cc(-c2cc3ncnc(NNC(=S)NCC4CCCO4)c3s2)c1` (stereo not drawn) [Compound 98], in the assay with A549 cells, the pIC50 is 7.60, the “Activity ranking: most active compounds” value is “most active” and the “Activity ranking: particularly active examples of the compounds of the invention” value is “particularly active”.
Regarding `Cc1cc(C)cc(-c2cc3ncnc(NNC(=S)NC(C)C)c3s2)c1` [Compound 99], in the assay on A549 cells, the pIC50 was 7.07, the “Activity ranking: most active compounds” value is recorded as “most active” and the “Activity ranking: particularly active examples of the compounds of the invention” value is reported as “particularly active”.
As to `COCCNC(=S)NNc1ncnc2cc(-c3cc(C)cc(C)c3)sc12` [Compound 100], in the assay with A549 cells, the pIC50 was 7.89, the “Activity ranking: most active compounds” value is “most active” and the “Activity ranking: particularly active examples of the compounds of the invention” value is “particularly active”.
As for `COCCCNC(=S)NNc1ncnc2cc(-c3cc(C)cc(C)c3)sc12` [Compound 101], in the assay on A549 cells, the pIC50 was 7.54, the “Activity ranking: most active compounds” value is reported as “most active” and the “Activity ranking: particularly active examples of the compounds of the invention” value is listed as “particularly active”.
On the same counts, the results for `COCCNC(=S)NNc1ncnc2cc(-c3ccc4c(c3)OCO4)sc12` [Compound 102] are 6.41, “most active” and “particularly active”.
`S=C(NCC(c1ccccc1)c1ccccc1)NNc1ncnc2cc(-c3ccccc3)sc12` [Compound 105]: in the assay on A549 cells, the pIC50 was 5.09 and the “Activity ranking: particularly active examples of the compounds of the invention” value is reported as “particularly active”.
`COC(=O)Nc1nc2ccc(C(=O)c3cccs3)cc2[nH]1` [nocodazole, reference compound]: the “Inhibition of tubulin polymerization (reduction of rate of absorbance increase at 340 nanometers)” value is on record as “Inhibition activity is observed” in assay [1] (setting [2]); “Inhibition activity is observed” in assay [1] (0.4, 2.0 and 10 μM, FIG. 1 (c)).
